Assay [1] addresses T1, human recombinant adrenergic α2B receptor (Homo sapiens, UniProt P18089).
T1 construct: expressed in transfected cells; host or cells: CHO-K1 cells
T1 sequence (P18089 1-450): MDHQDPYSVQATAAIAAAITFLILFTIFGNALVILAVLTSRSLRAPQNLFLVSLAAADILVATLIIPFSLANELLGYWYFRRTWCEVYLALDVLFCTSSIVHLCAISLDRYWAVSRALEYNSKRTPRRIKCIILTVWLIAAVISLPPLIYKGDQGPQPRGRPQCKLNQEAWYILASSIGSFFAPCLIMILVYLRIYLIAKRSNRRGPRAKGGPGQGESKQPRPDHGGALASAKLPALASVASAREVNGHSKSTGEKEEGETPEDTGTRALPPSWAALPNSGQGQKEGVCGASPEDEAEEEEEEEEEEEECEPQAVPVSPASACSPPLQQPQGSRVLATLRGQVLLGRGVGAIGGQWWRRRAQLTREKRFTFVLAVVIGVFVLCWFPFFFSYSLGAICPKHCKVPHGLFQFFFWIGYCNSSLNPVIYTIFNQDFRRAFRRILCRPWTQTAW
The assay can be described thus: Adrenergic alpha2B radioligand binding ([3H]Rauwolscine). The settings on record: compound at 1 μM; read-out: Adrenergic (1 μM) α2B, percent inhibition of specific binding. The method, then: To evaluate in radioligand binding assays the activity of compounds of the invention, human recombinant adrenergic α2B receptor expressed in Chinese hamster ovary (CHO-K1) cells (Uhlen S et al. Eur J. Pharmacol. 343(1):93, 1998) in a modified Tris-HCl buffer (50 mM Tris-HCl, pH 7.4, 12.5 mM MgCl2, 1 mM EDTA, 0.2% BSA) was used. Compounds of the invention were incubated with 2.5 nM [^3H]Rauwolscine for 60 min. at 25° C. Non-specific binding was estimated in the presence of 10 μM Prozosin. Receptor proteins were filtered and washed, the filters were then counted to determine [^3H]Rauwolscine specifically bound. Compounds were screened at 1 μM or lower, using 1% DMSO as vehicle. Biochemical assay results are presented as the percent inhibition of specific binding in Table 5.

The target in assay [2] is T2, human recombinant serotonin (5-Hydroxytryptamine) 5-HT6 receptor (Homo sapiens, UniProt P50406).
T2 construct: expressed in transfected cells; host or cells: human HeLa cells
Kind of assay: Serotonin 5-HT6 radioligand binding ([3H]LSD). Conditions: compound at 1 μM; read-out: Serotonin (1 μM) 5-HT6, percent inhibition of specific binding. The essentials: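 Human recombinant 5-HT6 receptor from HeLa cells incubated with 1.5 nM [3H]LSD for 120 min at 37° C in 50 mM Tris-HCl pH 7.4, 150 mM NaCl, 2 mM ascorbic acid, 0.001% BSA. Nonspecific binding defined with 5 μM serotonin; bound ligand counted after filtration.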

Assay [3] has as its target T3, human recombinant serotonin (5-Hydroxytryptamine) 5-HT2C receptor (Homo sapiens, UniProt P28335).
T3 construct: expressed in transfected cells; host or cells: CHO-K1 cells
T3 sequence (P28335 33-458): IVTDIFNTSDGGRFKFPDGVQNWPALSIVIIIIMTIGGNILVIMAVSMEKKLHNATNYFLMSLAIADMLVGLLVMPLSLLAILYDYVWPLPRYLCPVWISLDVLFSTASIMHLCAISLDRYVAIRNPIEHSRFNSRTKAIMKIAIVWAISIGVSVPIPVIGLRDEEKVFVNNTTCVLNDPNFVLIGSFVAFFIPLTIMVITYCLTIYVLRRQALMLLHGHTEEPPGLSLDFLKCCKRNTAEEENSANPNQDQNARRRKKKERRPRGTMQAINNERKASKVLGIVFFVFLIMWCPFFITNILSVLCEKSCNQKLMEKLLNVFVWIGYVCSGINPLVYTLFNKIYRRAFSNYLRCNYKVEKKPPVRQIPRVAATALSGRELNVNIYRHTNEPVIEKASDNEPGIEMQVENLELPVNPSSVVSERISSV
The assay can be described thus: Serotonin 5-HT2C radioligand binding ([3H]Mesulergine). The settings on record: compound at 1 μM; read-out: Serotonin (1 μM) 5-HT2C, percent inhibition of specific binding. An outline of the steps:
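Membranes from CHO-K1 cells expressing human 5-HT2C, incubated with 1 nM [3H]mesulergine for 60 min at 25 °C in 50 mM Tris-HCl pH 7.4 with ascorbic acid and pargyline.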

Assay [4] deals with T4, human recombinant histamine H1 receptor (Homo sapiens, UniProt P35367).
T4 construct: expressed in transfected cells; host or cells: CHO cells
The assay can be described thus: Histamine H1 radioligand binding ([3H]Pyrilamine). The settings on record: compound at 1 μM; read-out: Histamine Binding (1 μM) H1, percent inhibition of specific binding. The essentials:
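Membranes from CHO cells expressing the receptor were incubated with compound and 1.2 nM [3H]pyrilamine for 180 min at 25 °C in 50 mM Tris-HCl pH 7.4 with MgCl2, NaCl and sucrose; 1 μM pyrilamine defined non-specific binding. Filter-bound radioactivity was counted.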

The values that follow come from patent US9481676B2, “Azepino[4,5-B]indoles and methods of use” (Medivation Technologies, Inc., priority 2008, dated 2016).

T2 sequence (P50406 whole entry): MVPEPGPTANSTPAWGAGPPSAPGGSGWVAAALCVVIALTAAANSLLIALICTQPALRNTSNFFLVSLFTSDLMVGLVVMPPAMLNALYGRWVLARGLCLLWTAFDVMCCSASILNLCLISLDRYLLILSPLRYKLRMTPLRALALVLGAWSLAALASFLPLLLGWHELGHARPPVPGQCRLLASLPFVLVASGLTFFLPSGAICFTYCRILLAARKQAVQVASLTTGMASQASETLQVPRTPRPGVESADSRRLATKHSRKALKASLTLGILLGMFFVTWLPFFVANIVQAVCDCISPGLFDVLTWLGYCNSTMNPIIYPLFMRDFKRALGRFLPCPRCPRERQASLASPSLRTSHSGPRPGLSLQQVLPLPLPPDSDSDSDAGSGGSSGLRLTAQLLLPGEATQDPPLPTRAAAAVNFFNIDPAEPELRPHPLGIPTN
T4 sequence (P35367 whole entry): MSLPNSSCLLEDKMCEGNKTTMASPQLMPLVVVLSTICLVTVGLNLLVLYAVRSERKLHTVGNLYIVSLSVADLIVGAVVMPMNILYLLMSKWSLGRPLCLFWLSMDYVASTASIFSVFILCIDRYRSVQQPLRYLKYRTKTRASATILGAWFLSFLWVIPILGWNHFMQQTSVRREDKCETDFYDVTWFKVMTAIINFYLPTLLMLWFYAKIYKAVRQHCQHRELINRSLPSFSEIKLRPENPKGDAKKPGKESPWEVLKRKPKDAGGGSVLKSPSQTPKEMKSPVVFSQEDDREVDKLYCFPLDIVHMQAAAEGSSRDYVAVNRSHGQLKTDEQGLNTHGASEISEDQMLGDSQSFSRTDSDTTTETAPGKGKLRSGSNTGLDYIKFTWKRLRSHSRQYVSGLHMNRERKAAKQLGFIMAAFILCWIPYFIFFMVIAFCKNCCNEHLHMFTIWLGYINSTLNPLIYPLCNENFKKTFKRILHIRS

For the molecule `CN1CCc2c(n(C#Cc3ccc(F)cc3)c3ccc(Cl)cc23)CC1` [Compound No. 281, 9-chloro-6-((4-fluorophenyl)ethynyl)-3-methyl-1,2,3,4,5,6-hexahydroazepino[4,5-b]indole], the inhibition at 1 µM was determined as 99% in assay [1], 97% in assay [2], 98% in assay [3] and 56% in assay [4].
In the same order, the values of `Cc1ccc2c(c1)c1c(n2CC(=O)N2CCCC2)CCN(C)CC1` [Compound No. 45, 2-(2,3,4,5-tetrahydro-3,9-dimethylazepino[4,5-b]indol-6(1H)-yl)-1-(pyrrolidin-1-yl)ethanone] are 9%, 2%, 16% and 13%.
The like results for `Cc1ccc2c(c1)c1c(n2CC(=O)N(C)C2CCCCC2)CCN(C)CC1` [Compound No. 232, N-cyclohexyl-2-(3,9-dimethyl-2,3,4,5-tetrahydroazepino[4,5-b]indol-6(1H)-yl)-N-methylacetamide] were, in that order, 39%, 20%, 93% and 95%.
The like results for `CN1CCc2c(n(CC(=O)N3CCOCC3)c3ccc(Cl)cc23)CC1` [Compound No. 60, 2-(9-chloro-2,3,4,5-tetrahydro-3-methylazepino[4,5-b]indol-6(1H)-yl)-1-morpholinoethanone] were, in that order, 53%, 3%, -5% and 2%.
For `C/C(=C\n1c2c(c3cc(C)ccc31)CCN(C)CC2)c1ccc(Cl)cc1Cl` [Compound No. 238, (E)-6-(2-(2,4-dichlorophenyl)prop-1-enyl)-3,9-dimethyl-1,2,3,4,5,6-hexahydroazepino[4,5-b]indole], the inhibition at 1 µM came out at 103% in assay [1], 86% in assay [2], 100% in assay [3] and 98% in assay [4].
Consider `COc1ccc(C(O)Cn2c3c(c4cc(C)ccc42)CCN(C)CC3)c(F)c1` (centres unmarked) [Compound No. 50, 1-(2-fluoro-4-methoxyphenyl)-2-(2,3,4,5-tetrahydro-3,9-dimethylazepino[4,5-b]indol-6(1H)-yl)ethanol], for which the inhibition at 1 µM in assay [1] was 102%; in assay [2], 88%; in assay [3], 95%; in assay [4], 98%.
In the same order, the values of `Cc1ccc2c(c1)c1c(n2CC(C)(O)c2ccc(F)cc2)CCN(C)CC1` (centres unmarked) [Compound No. 14, 2-(4-fluorophenyl)-1-(2,3,4,5-tetrahydro-3,9-dimethylazepino[4,5-b]indol-6(1H)-yl)propan-2-ol] are 100%, 93%, 95% and 98%.
In the same order, the values of `Cc1ccc2c(c1)c1c(n2CCc2ccccc2)CCN(C)CC1` [Compound No. 62, 1,2,3,4,5,6-hexahydro-3,9-dimethyl-6-phenethylazepino[4,5-b]indole] are 98%, -4%, 101% and 98%.
In the same order, the values of `C/C(=C\n1c2c(c3cc(Cl)ccc31)CCN(C)CC2)c1ccc(Cl)cc1Cl` [Compound No. 239, (E)-9-chloro-6-(2-(2,4-dichlorophenyl)prop-1-enyl)-3-methyl-1,2,3,4,5,6-hexahydroazepino[4,5-b]indole] are 107%, 59%, 97% and 91%.
Regarding `Cc1ccc2c(c1)c1c(n2CC(=O)Nc2ccc(F)cc2)CCN(C)CC1` [Compound No. 44, N-(4-fluorophenyl)-2-(2,3,4,5-tetrahydro-3,9-dimethylazepino[4,5-b]indol-6(1H)-yl)acetamide], the inhibition at 1 µM in assay [1] was determined as 12%; in assay [2] it was 1%; in assay [3], 41%; in assay [4], 16%.
Take `Cc1ccc2c(c1)c1c(n2CC(=O)NC2CCCCC2)CCN(C)CC1` [Compound No. 22, N-cyclohexyl-2-(2,3,4,5-tetrahydro-3,9-dimethylazepino[4,5-b]indol-6(1H)-yl)acetamide]: the inhibition at 1 µM in assay [1] was -7%; in assay [2], -12%; in assay [3], -4%; in assay [4] it was 12%.
With `Cc1ccc2c(c1)c1c(n2CCc2cncc(Cl)c2)CCN(C)CC1` [Compound No. 4, 6-(2-(5-chloropyridin-3-yl)ethyl)-1,2,3,4,5,6-hexahydro-3,9-dimethylazepino[4,5-b]indole], the inhibition at 1 µM in assay [1] was determined as 93%; in assay [2] it was 83%; in assay [3], 89%; in assay [4], 100%.
In the same order, the values of `CN1CCc2c(n(CC(=O)N3CCNCC3)c3ccc(Cl)cc23)CC1` [Compound No. 72, 2-(9-chloro-2,3,4,5-tetrahydro-3-methylazepino[4,5-b]indol-6(1H)-yl)-1-(piperazin-1-yl)ethanone] are 7%, 39%, 53% and -12%.
In the same order, the values of `CN1CCc2c(n(CC(O)c3ccccc3F)c3ccc(Cl)cc23)CC1` (centres unmarked) [Compound No. 40, 2-(9-chloro-2,3,4,5-tetrahydro-3-methylazepino[4,5-b]indol-6(1H)-yl)-1-(2-fluorophenyl)ethanol] are 101%, 101%, 97% and 101%.
With `CN1CCc2c(n(CC(=O)N(C)C3CCCCC3)c3ccc(Cl)cc23)CC1` [Compound No. 74, 2-(9-chloro-2,3,4,5-tetrahydro-3-methylazepino[4,5-b]indol-6(1H)-yl)-N-cyclohexyl-N-methylacetamide], the inhibition at 1 µM in assay [1] was 27%; in assay [2] it was -4%; in assay [3], 1%; in assay [4], 25%.
`C/C(=C\n1c2c(c3cc(Cl)ccc31)CCN(C)CC2)c1ccc(Cl)cc1` [Compound No. 36, 9-chloro-6-((E)-2-(4-chlorophenyl)prop-1-enyl)-1,2,3,4,5,6-hexahydro-3-methylazepino[4,5-b]indole]: the inhibition at 1 µM came out at 101% in assay [1], 99% in assay [2], 83% in assay [3] and 88% in assay [4].
In the same order, the values of `Cc1ccc2c(c1)c1c(n2CCc2ccncc2)CCN(C)CC1` [Compound No. 6, 1,2,3,4,5,6-hexahydro-3,9-dimethyl-6-(2-(pyridin-4-yl)ethyl)azepino[4,5-b]indole] are 106%, 82%, 92% and 103%.

Broadly, the inhibition is the relative decrease from the control value, in per cent.
